Results from patent EP0554025A2, “Fluorinated cyclobutyl purines and pyrimidines” (E.R. SQUIBB & SONS, INC., priority 1992, dated 1993).
Where two headings read alike, the source gives them in different places.

Columns and labels:
Format in all cases: cell-based
[1] = system: HSV-1 (herpes simplex virus type 1, strain Schooler); assay: HSV-1 plaque reduction antiviral assay in WI-38 cell culture monolayers; settings: WI-38 cell monolayers, plaque reduction after 4 days incubation at 37°C, read-out: ID50 (μM) for the following viruses HSV-1
Procedure: (§1) Assays were performed in cell culture systems to determine the concentrations of compounds that are effective in preventing several kinds of viral infections. HSV-1 (herpes simplex virus type 1, strain Schooler), HSV-2 (herpes simplex virus type 2, strain 186), VZV (varicella zoster virus, strain ELLEN), HCMV (human cytomegalovirus, strain AD 169). HSV-1, HSV-2, HCMV, and VZV antiviral assays: Virus was adsorbed to WI-38 cell culture monolayers in 6 cell culture plates (Costar, Cambridge, MA) for 1 hour prior to addition of maintenance medium containing duplicate dilutions of the test compound. Inhibition of plaque development was evaluated on fixed and stained monolayers after 4 days incubation at 37°C for HSV-1 and HSV-2 and after 6-7 days incubation at 37°C for HCMV and VZV. ID50 values were determined from the drug concentration which conferred at least a 50% plaque reduction compared to virus controls.

[2] = system: HSV-2 (herpes simplex virus type 2, strain 186); assay: HSV-2 plaque reduction antiviral assay in WI-38 cell culture monolayers; settings: WI-38 cell monolayers, plaque reduction after 4 days incubation at 37°C, read-out: ID50 (μM) for the following viruses HSV-2
Procedure: as §1

[3] = system: VZV (varicella zoster virus, strain ELLEN); assay: VZV plaque reduction antiviral assay in WI-38 cell culture monolayers; settings: plaque reduction after 6-7 days incubation at 37°C, read-out: ID50 (μM) for the following viruses VZV
Procedure: as §1

[4] = system: HCMV (human cytomegalovirus, strain AD 169); assay: HCMV plaque reduction antiviral assay in WI-38 cell culture monolayers; settings: plaque reduction after 6-7 days incubation at 37°C, read-out: ID50 (μM) for the following viruses HCMV
Procedure: as §1

In the case of Nc1nc2c(ncn2[C@H]2C[C@@](F)(CO)[C@@H]2O)c(=O)[nH]1 [Product of Example 2, (1 α,2β,3β)-2-Amino-9-[3-fluoro-2-hydroxy-3-(hydroxymethyl)cyclobutyl]-1,9-dihydro-6H-purin-6-one], the IC50 [1] is reported as 37 to 93 µM, the IC50 [2] is reported as 37 to 93 µM and the IC50 ([3]; WI-38 cell monolayers) is reported as 7 to 19 µM. The IC50 ([4]; WI-38 cell monolayers) was 37 µM.

Nc1nc2c(ncn2C2CC(F)(CO)C2CO)c(=O)[nH]1 (stereo not drawn) [Product of Example 1, (1α,2β,3β)-2-Amino-9-[3-fluoro-2,3-bis(hydroxymethyl)cyclobutyl]-1,9-dihydro-6H-purin-6-one] showed an IC50 ([1]; Human alphaherpesvirus 1, 96 h) of 0.35 to 0.7 µM, an IC50 ([2]; Human alphaherpesvirus 2, 96 h) of 0.35 to 0.7 µM and an IC50 ([3]; Human alphaherpesvirus 3, WI-38 cell monolayers) of 1.1 µM. The IC50 ([4]; Human betaherpesvirus 5, WI-38 cell monolayers) was 7 to 18 µM.
